Legend:
mAb 2C1 = experiment: Competitive immunoassay: inhibition of total PSA specific mAb binding to PSA; conditions: FIG. 3A
Protocol: (§1) (A). Two-site combinations of capture antibody and Europium chelate (Eu)-labeled antibody was used to determine the inhibition of mAbs binding to PSA by the synthetic peptides derived from PSA. Briefly, free PSA (0.05 pmol/well, Wallac, O Y, Turku, Finland) in 0.100 mL of Delfia® buffer (Wallac, O Y) (i.e., a blocking buffer containing 50 mM Tris-HCl (pH 7.75), 0.9% NaCl, 0.05% Na-azide, 0.01% Tween 40, 0.05% bovine-gammaglobulin, 20 μM DTPA, 0.5% BSA, 10 μg/mL native mouse IgG, 5 μg/mL denatured mouse IgG and 20 μg/mL cherry red) was added to microtiter wells coated with the various anti-PSA antibodies being used for capture (1-2 μg/well of antibody) and incubated for 1 hour at 25° C. […] After another four washings, the amount of bound Eu-labeled antibody was determined with time-resolved fluorometry previously described (Pettersson et al., Clin. Chem. 41:1480-88 (1995) & Hemmilia et al., Anal. Biochem. 137:335-43 (1984)).
(§2) (B). […] After another four washings, 100 μl/well of p-nitrophenyl phosphate substrate (Pierce Chemical Co., Rockford, Ill.) was added and the absorbance was measured at 405 nm using an automated microtiter plate reader.

mAb H164 [1] = experiment: as above; conditions: FIG. 3A
Protocol: as §1, §2

mAb H164 [2] = experiment: Indirect ELISA, binding specificity of mAb H164; conditions: FIG. 3C
Protocol: (§3) An indirect ELISA assay was used to determine the reactivity and specificity of anti-PSA mAbs and pAbs. For the assay, 96 well microtiter plates (Costar, Cambridge, MA) were coated with PSA (0.5 micrograms/well, Abbott Laboratories, in house product, code# 91969, purified from seminal fluid) or peptides (0.1 mg/well) in 0.1 M carbonate-bicarbonate buffer (pH 9.0) overnight at 4° C. The plates were blocked with 1% BSA in PBS buffer (0.008 M sodium phosphate, 0.002M potassium phosphate, 0.14 M sodium chloride and 0.01M potassium chloride, pH 7.4) for 1 hour, then anti-PSA mAbs or pAbs (100 microliters/well) at varying dilutions were added. After incubation for 1 hour at 25° C., the wells were washed with PBS buffer containing 0.5% Tween 20, then 100 microliters/well of alkaline phosphatase-conjugated antibody (goat anti-mouse IgG or goat anti-rabbit IgG--from Pierce, Rockford, IL) at 5000 fold dilution was added and incubation continued for 1-2 hr at 25° C. After washing, 100 microliters/well of p-nitrophenyl phosphate substrate (Pierce, Rockford, Ill.) was added and the absorbance was measured at 405 nm using an automated microtiter plate reader (Molecular Devices Corp. Menlo Oaks, Calif.).

[3] = tested on: rabbit anti-ABT4 antiserum; experiment: Indirect ELISA, reactivity and specificity of anti-ABT4 antiserum; format: binding; conditions: FIG. 6, relative affinity ABT4 >PSA >hK2a
Protocol: as §3, with “After incubation for 1 hour at 25° C., the wells were washed with PBS buffer containing 0.5% Tween 20, then 100 microliters/well of alkaline phosphatase-conjugated antibody (goat anti-mouse IgG or goat anti-rabbit IgG--from Pierce, Rockford, IL) at 5000 fold dilution was added and incubation continued for 1-2 hr at 25° C.” left out, “Calif.). […]” for “Calif.).”
The reactivity and specificity of Anti-ABT4 antiserum were evaluated by estimating the relative binding affinities (Wang et al., […] 39:1-5 (1982)) for PSA, PSA peptide ABT4 and hK2 peptide (hK2a) as described in Example I. The indirect ELISA assay format described in Section C-I of Example I was used for these studies and the data are shown in FIG. 6. […]

[4] = tested on: known anti-PSA monoclonal antibodies; experiment: Binding to known anti-PSA monoclonal antibodies (summary); conditions: summary statement
Protocol: as §3
(§4) (A). Two-site combinations of capture antibody and Europium chelate (Eu)-labeled antibody was used to determine the inhibition of mAbs binding to PSA by the synthetic peptides derived from PSA. Briefly, free PSA (0.05 pmol/well, Wallac, O Y, Turku, Finland) in 0.100 mL of Delfia® buffer (Wallac, O Y) (i.e., a blocking buffer containing 50 mM Tris-HCl (pH 7.75), 0.9% NaCl, 0.05% Na-azide, 0.01% Tween 40, 0.05% bovine-gammaglobulin, 20 μM DTPA, 0.5% BSA, 10 μg/mL native mouse IgG, 5 μg/mL denatured mouse IgG and 20 μg/mL cherry red) was added to microtiter wells coated with the various anti-PSA antibodies being used for capture (1-2 μg/well of antibody) and incubated for 1 hour at 25° C. (Free or total antibodies may be used.) After washing with Delfia® wash solution, peptides (62,500-1,000,000 molar excess to PSA) in […] Delfia® buffer were added together with the Europium chelate-labeled anti-PSA antibody (0.05 pmol), and incubation was continued for 1 hour at 25°0 C. After another four washings, the amount of bound Eu-labeled antibody was determined with time-resolved fluorometry previously described (Pettersson et al., Clin. Chem. 41:1480-88 (1995) & Hemmilia et al., Anal. Biochem. 137:335-43 (1984)).
as §2

[5] = Immunization of rabbits with peptide coupled to KLH; format: in vivo; conditions: FIG. 5 / FIG. 6
Excerpt: Antiserum was elicited by immunizing rabbits with PSA peptide ABT6 coupled to the carrier protein KLH (keyhole limpet hemocyanin) at Bio-Synthesis, Inc. (Lewisville, Tex.) using standard commercially available techniques.
Anti-ABT4 antiserum was elicited by immunizing two rabbits with PSA peptide ABT4 coupled to the carrier protein KLH at Bio-Synthesis, Inc.(Lewisville,Tex.).

mAb 2E9 [6] = experiment: Competitive immunoassay: inhibition of mAb binding to PSA by synthetic peptides; conditions: competitive immunoassay section C-II-A; FIG. 2A
Protocol: as §4

[7] = tested on: mAb 5A10 (specific for free PSA); experiment: as above; conditions: competitive immunoassay section C-II-A; FIG. 2A
Protocol: as §4

[8] = tested on: mAb 9B10 (specific for free PSA); experiment: as above
Protocol: as §4

mAb H68 = experiment: as above; conditions: competitive immunoassay section C-II-A; FIG. 2A
Protocol: as §4

mAb 2E9 [9] = experiment: Indirect ELISA, binding specificity of mAb 2E9; conditions: FIG. 2B
Protocol: as §3

[10] = tested on: rabbit anti-ABT6 antiserum; experiment: Indirect ELISA, reactivity and specificity of anti-ABT6 antiserum; format: binding; conditions: FIG. 5
Protocol: as §3, with “After incubation for 1 hour at 25° C., the wells were washed with PBS buffer containing 0.5% Tween 20, then 100 microliters/well of alkaline phosphatase-conjugated antibody (goat anti-mouse IgG or goat anti-rabbit IgG--from Pierce, Rockford, IL) at 5000 fold dilution was added and incubation continued for 1-2 hr at 25° C.” left out, “Calif.). […]” for “Calif.).”
The reactivity and specificity of antiserum anti-ABT6 was evaluated by estimating the relative binding affinities (Wang et al., Urology 39:1-5 (1982)) for PSA, PSA peptide ABT6 and hK2 peptide hK2b as described in Example I. The indirect ELISA format described in Section C-I of Example 1 was used for these studies and the data are shown in FIG. 5.

mAb 30:5 = experiment: Competitive immunoassay: inhibition of mAb binding to PSA by synthetic peptides; conditions: inhibition studies
Protocol: as §4

mAb 6:3 = experiment: as above; conditions: inhibition studies
Protocol: as §4

goat anti-PSA antiserum = experiment: Direct ELISA with alkaline phosphatase-labeled goat anti-PSA antiserum; format: binding; conditions: peptides coated on microtiter plates; FIG. 4
Excerpt: Synthetic peptides were also screened by a direct ELISA assay format which utilized a goat anti-PSA antiserum conjugated to alkaline phosphatase. In particular, peptides were coated on microtiter plates and detected by enzyme-labelled anti-PSA polyclonal antibodies. The goat anti-PSA antiserum was produced by immunization with free PSA. […] In addition to those epitopes identified by mAbs as described above, two new epitopes, ABT2 and ABT7, were identified by the anti-PSA antiserum.

binding of mAb H164 to coated peptide or PSA (mAb H164 [2]) | binding of anti-ABT4 antiserum (relative binding affinity) [3] | binding to several known anti-PSA monoclonal antibodies [4] | binding of mAb 2E9 to coated peptide or PSA (mAb 2E9 [9]) | binding of anti-ABT6 antiserum (relative binding affinity) [10] | Substance | immunogenicity (ability to elicit antibodies) [5] | other results
bound specifically | binds | specific binding |  |  | CLLGRHSLFHPEDTGQC [ABT4] | immunogenic | inhibition of PSA binding to mAb 2C1 (mAb 2C1): 80%; inhibition of PSA binding to mAb H164 (mAb H164 [1]): 90%
 |  | specific binding | specific binding | high affinity | CMSLLKNRFLRPGDDSC [ABT6] | immunogenic | binding to mAb 2E9 (mAb 2E9 [6]): selectively bound; binding to mAb 5A10 [7]: specific binding; binding to mAb 9B10 ([8]; competitive immunoassay section C-II-A, FIG. 2A): specific binding; binding to mAb H68 (mAb H68): selectively bound
 |  | specific binding |  |  | CNRFLRPGDDSSC [ABT1, synthetic PSA peptide; short version of ABT6] |  | inhibition of mAb 30:5 (mAb 30:5): 50%; inhibition of mAb 6:3 (mAb 6:3): 23%; inhibition of mAb 9B10 ([8]; inhibition studies): 40%
 |  | specific binding |  |  | CWGSIEPEEFLTPKKLC [ABT2, synthetic PSA peptide] |  | epitope identified by goat anti-PSA antiserum (goat anti-PSA antiserum): identified
bound specifically | binds |  | specific binding | high affinity | PSA: Prostate specific antigen, Abbott Laboratories in house product, purified from seminal fluid |  | 
